Assay results from patent US20130324522A1, “INSECT ODORANT RECEPTOR ANTAGONISTS” (THE ROCKEFELLER UNIVERSITY, priority 2010, published 2013).
Where two headings read alike, the source gives them in different places.

Assays:
Type in all cases: cell-based
OR8/OR7 = OR8/OR7 (Anopheles gambiae, UniProt Q7PUT5+Q7QCC7); test: Ca2+-imaging of stable HEK293T cell line OR8/OR7; settings: for inhibition at 4 µM: HEK-293T, read-out: Percent Inhibition OR8 OR7
Experimental: (§1) Full-length cDNAs for mosquito (Anopheles gambiae) odorant receptor (OR1, OR2, OR7, OR8, OR28), and fly (Drosophila melanogaster) odorant receptor (Or47a, Or83b), mouse TRP channel (TRPM8), and mouse serotonin receptor (5HT3) were obtained and subcloned into mammalian expression vectors. The following mammalian expression vectors were used:
Stable cell lines OR1/OR7, OR2/OR7, OR8/OR7, OR10/OR7, OR28/OR7 and TRPM8 were generated from HEK293T cells. HEK293T-based cell lines were cultured in DMEM supplemented with these additional antibiotics: 6 μg/mL blasticidin and 1 μg/mL puromycin, with the exception of the TRPM8 cell lines, which was cultured in DMEM supplemented with 1 μg/mL puromycin.
Cells were trypsinized and split into 35 mm dishes one day before transfection. Confluent cells (60-70%) in 35 mm dishes were transfected with 1 μg of insect OR(X) plasmids in pME18s-bla and 1 μg of OR7-pME18s-puro using lipofectamine 2000. For Anopheles odorant receptors, two plasmids were co-transfected into HEK cells: the ligand-specific receptor (OR1, OR2, OR8, OR28) and the corresponding olfactory co-receptor: OR7. Cell lines containing TRPM8 were transfected with single plasmid.
(§2) Stable cell lines were cultured in 10 cm dishes, and confluent cells (70-80%) were trypsinized. 10,000 cells/20 μL were transferred into each well of 384-well plates coated with poly-D-lysine, and cultured for 2 days. For Flip-In T-Rex cells (cell lines expressing Or47a/Or83b and 5HT3), 5 μL of tetracycline (5 μg/mL) were added 1 day before the assay. 20 μL of Ca-4 dye was loaded into each well for 1.5 hr at room temperature in the dark, and the dye-loaded plates were subjected to Ca^2+-imaging using a Hamamatsu FDSS6000 real time fluorescence plate reader. Odorant solutions (9× final concentration) were prepared by dissolving 1M stock solutions into Hank's Buffered Salt Solution (HBSS), and 30 μL of odor solution was transferred to each well in 384-well plates.
(§3) Compounds ([…] in DMSO) were stored in 384-well plates, and last two columns (32 wells total) contained only DMSO. 200 nL of small compounds were transferred into the odorant plates before the assay using the Perkin-Elmer Janus workstation. The odorant plates were spun down to remove air bubbles, and placed on the FDSS6000 plate loader, and 5 μL of odorant solution was applied to the cell plate on the FDSS6000. Ca^2+ increase was monitored with fluorescence at 525 nm by excitation at 485 nm.

mOREG = biological target: T1, mOREG (Mus musculus, UniProt Q920P2); test: Ca2+-imaging, control receptor mOREG; settings: for inhibition at 4 µM: read-out: Percent Inhibition mOREG
T1 sequence (Q920P2 1-313): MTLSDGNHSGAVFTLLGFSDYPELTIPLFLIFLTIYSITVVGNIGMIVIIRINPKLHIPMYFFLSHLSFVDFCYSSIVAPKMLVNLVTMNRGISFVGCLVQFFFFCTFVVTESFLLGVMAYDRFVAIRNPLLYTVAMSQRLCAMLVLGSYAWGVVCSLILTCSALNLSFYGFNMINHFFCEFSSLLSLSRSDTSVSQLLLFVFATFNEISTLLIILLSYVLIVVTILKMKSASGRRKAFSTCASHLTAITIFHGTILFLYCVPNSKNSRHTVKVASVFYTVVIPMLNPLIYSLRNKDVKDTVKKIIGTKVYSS
Experimental: as §2, with “plates. The last two columns of the plate (32 wells total) were used as control wells as follows: • negative control with HBSS buffer (16 wells) • positive control with ligands (16 wells).” for “plates.”
as §3

[1] = biological target: T2, serotonin receptor (5HT3) (Mus musculus, UniProt P23979); test: Ca2+-imaging of stable Flip-In T-Rex cell line 5HT3; settings: for inhibition at 4 µM: read-out: Percent Inhibition 5HT3
T2 construct: Full-length cDNAs for mosquito (Anopheles gambiae) odorant receptor; expressed in transfected cells
T2 sequence (P23979 24-489): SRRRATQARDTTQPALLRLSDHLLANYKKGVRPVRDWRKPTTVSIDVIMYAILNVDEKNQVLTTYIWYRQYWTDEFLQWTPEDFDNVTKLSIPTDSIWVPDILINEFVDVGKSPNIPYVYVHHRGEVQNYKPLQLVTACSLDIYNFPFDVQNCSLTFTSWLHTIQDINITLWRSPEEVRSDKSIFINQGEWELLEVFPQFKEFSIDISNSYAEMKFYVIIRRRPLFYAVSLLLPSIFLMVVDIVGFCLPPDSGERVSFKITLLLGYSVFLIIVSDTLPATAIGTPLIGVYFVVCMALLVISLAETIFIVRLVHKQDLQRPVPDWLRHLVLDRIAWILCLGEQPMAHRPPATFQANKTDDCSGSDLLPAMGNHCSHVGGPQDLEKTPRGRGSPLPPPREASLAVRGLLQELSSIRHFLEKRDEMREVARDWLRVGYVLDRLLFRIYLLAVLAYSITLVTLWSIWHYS
Experimental: as §1
Stable cell lines Or47a/Or83b and 5HT3 were generated from Flip-In T-Rex cells. Flip-In T-Rex-based cell lines were cultured in DMEM supplemented with these additional antibiotics: 6 μg/mL blasticidin and 100 μg/mL hygromycin.
Cells were trypsinized and split into 35 mm dishes 1 day before transfection. Confluent cells (60-70%) in 35 mm dishes were co-transfected with 1 μg of Or47a/Or83b plasmid in pcDNA5/FRT/TO/IRES plus the pOG44 plasmid or 1 μg of 5HT3 plasmid in pcDNA5/FRT/TO plus the pOG44 plasmid using lipofectamine 2000. Co-transfection of pOG44 and pcDNA5/FRT/TO/IRES or pcDNA5/FRT/TO allows expression of Flp recombinase and integration of the pcDNA5 plasmid into the genome via the FRT site. After one day of incubation, the transfected cells were transferred into 10 cm dishes with DMEM containing antibiotics: 20 μg/mL of hygromycin and 6 μg/mL of blasticidin. The concentration of Hygromycin was increased to 100 μg/mL when the population of cells became 30-40% confluent. The cells were cultured by changing medium every two days until cell clumps appeared. The clumps were picked and transferred into 96 well plates with DMEM containing 100 μg/mL of Hygromycin and 6 μg/mL of blasticidin. The cells were grown and transferred to 24 well plates, and ligand-evoked calcium increases were tested using the Hamamatsu FDSS6000 real time fluorescence plate reader.
as §2, §3

Sequence of OR8/OR7 (Q7QCC7 whole entry): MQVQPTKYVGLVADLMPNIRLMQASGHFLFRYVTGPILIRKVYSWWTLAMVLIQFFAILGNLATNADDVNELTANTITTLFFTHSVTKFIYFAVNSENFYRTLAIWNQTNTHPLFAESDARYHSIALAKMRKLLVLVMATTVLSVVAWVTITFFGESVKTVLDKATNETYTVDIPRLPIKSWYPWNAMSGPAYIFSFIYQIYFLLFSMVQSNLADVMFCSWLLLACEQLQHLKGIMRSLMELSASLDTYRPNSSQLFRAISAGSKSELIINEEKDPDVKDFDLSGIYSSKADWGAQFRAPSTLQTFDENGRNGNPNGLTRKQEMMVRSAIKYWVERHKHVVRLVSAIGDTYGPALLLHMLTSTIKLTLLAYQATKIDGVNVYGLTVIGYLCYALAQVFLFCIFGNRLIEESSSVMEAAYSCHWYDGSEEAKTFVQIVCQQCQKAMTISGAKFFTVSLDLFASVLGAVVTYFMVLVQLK
Sequence of OR8/OR7 (Q7PUT5 entry or part of it): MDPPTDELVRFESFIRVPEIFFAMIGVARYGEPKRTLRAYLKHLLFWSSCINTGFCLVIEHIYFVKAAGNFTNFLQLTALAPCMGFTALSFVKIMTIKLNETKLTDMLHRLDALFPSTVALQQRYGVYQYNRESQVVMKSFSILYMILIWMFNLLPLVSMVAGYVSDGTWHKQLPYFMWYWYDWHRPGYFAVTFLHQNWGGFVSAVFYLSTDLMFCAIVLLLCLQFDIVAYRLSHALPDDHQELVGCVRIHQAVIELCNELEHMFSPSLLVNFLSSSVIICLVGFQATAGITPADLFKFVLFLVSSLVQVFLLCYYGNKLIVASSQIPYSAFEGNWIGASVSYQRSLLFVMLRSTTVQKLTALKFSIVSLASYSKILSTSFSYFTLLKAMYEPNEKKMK

O=C(CCC1CCN(C(=O)c2cccc(-n3cccn3)c2)CC1)Nc1ccccc1 [RU-0032465]
inhibition at 4 µM (OR8/OR7; compound applied at 4 μM): 51 to 74%
IC50 (OR8/OR7; Table B, read-out: IC50 OR8): > 1000 nM
inhibition at 4 µM (mOREG; compound applied at 4 μM): 26 to 50%
inhibition at 4 µM ([1]; compound applied at 4 μM): < 25%

Cc1ccc(-c2nnc(SCCCC(=O)N3CCN(C(=O)c4cccc(F)c4)C(C)C3)n2-c2ccc(C)cc2)cc1 (stereo not drawn) [RU-0071789]
inhibition at 4 µM (OR8/OR7; compound applied at 4 μM): < 25%
inhibition at 4 µM (mOREG; compound applied at 4 μM): 26 to 50%
inhibition at 4 µM ([1]; compound applied at 4 μM): 26 to 50%

Cc1cccc(Cn2ccnc2CN(C(=O)c2ccccc2F)C2CCCCC2)c1 [RU-0047851]
inhibition at 4 µM (OR8/OR7; compound applied at 4 μM): < 25%
inhibition at 4 µM (mOREG; compound applied at 4 μM): 26 to 50%
inhibition at 4 µM ([1]; compound applied at 4 μM): < 25%

COc1ccc(-n2c(Cc3ccccc3)nnc2SCCCC(=O)N2CCN(C(=O)c3ccc(C(F)(F)F)cc3)C(C)C2)cc1 (stereo not drawn) [RU-0071828]
inhibition at 4 µM (OR8/OR7; compound applied at 4 μM): < 25%
inhibition at 4 µM (mOREG; compound applied at 4 μM): 26 to 50%
inhibition at 4 µM ([1]; compound applied at 4 μM): 26 to 50%

O=C(NCCC(=O)N1CCOC(COCc2ccc(F)cc2Cl)C1)OCc1ccccc1 (stereo not drawn) [RU-0050344]
inhibition at 4 µM (OR8/OR7; compound applied at 4 μM): 26 to 50%
inhibition at 4 µM (mOREG; compound applied at 4 μM): 26 to 50%
inhibition at 4 µM ([1]; compound applied at 4 μM): < 25%

COCCN(Cc1c(-c2ccccc2)noc1N1CCSCC1)CC(O)COCc1ccco1 (stereo not drawn) [RU-0037278]
inhibition at 4 µM (OR8/OR7; compound applied at 4 μM): 26 to 50%
inhibition at 4 µM (mOREG; compound applied at 4 μM): 26 to 50%
inhibition at 4 µM ([1]; compound applied at 4 μM): 26 to 50%

COc1ccccc1CC(=O)N1CCOC(COc2ccc(C)cc2)C1 (stereo not drawn) [RU-0050390]
inhibition at 4 µM (OR8/OR7; compound applied at 4 μM): < 25%
inhibition at 4 µM (mOREG; compound applied at 4 μM): < 25%
inhibition at 4 µM ([1]; compound applied at 4 μM): < 25%

O=C(C1CCC1)N(Cc1ccco1)Cc1nccn1Cc1ccccc1Cl [RU-0048066]
inhibition at 4 µM (OR8/OR7; compound applied at 4 μM): < 25%
inhibition at 4 µM (mOREG; compound applied at 4 μM): < 25%
inhibition at 4 µM ([1]; compound applied at 4 μM): < 25%

Cc1ccccc1C(=O)N[C@@H]1CCCCC1NC(=O)C1CCN(C(=O)C23CC4CC(CC(C4)C2)C3)CC1 (stereo partly drawn) [RU-0045351]
inhibition at 4 µM (OR8/OR7; compound applied at 4 μM): < 25%
inhibition at 4 µM (mOREG; compound applied at 4 μM): 26 to 50%
inhibition at 4 µM ([1]; compound applied at 4 μM): < 25%

CCn1c(C)c(C(=O)CN(CC2CCCO2)C(=O)C2C[C@H]2c2ccccc2)c(C)c1C(=O)OC (stereo partly drawn) [RU-0071273]
inhibition at 4 µM (OR8/OR7; compound applied at 4 μM): 26 to 50%
IC50 (mOREG; Table B): 100 to 1000 nM
inhibition at 4 µM (mOREG; compound applied at 4 μM): 26 to 50%
inhibition at 4 µM ([1]; compound applied at 4 μM): 26 to 50%

C=CCN(Cc1nccn1Cc1ccccc1F)C(=O)C1CCCC1 [RU-0058964]
inhibition at 4 µM (OR8/OR7; compound applied at 4 μM): 26 to 50%
inhibition at 4 µM (mOREG; compound applied at 4 μM): 26 to 50%
IC50 ([1]; Table B, read-out: IC50 5HT3): > 1000 nM
inhibition at 4 µM ([1]; compound applied at 4 μM): 51 to 74%

CCN(CC)C(=O)Oc1ccc2c(ccn2Cc2ccccc2Cl)c1NC(=O)CCCCC(=O)OC [RU-0075446]
inhibition at 4 µM (OR8/OR7): < 25%
inhibition at 4 µM (mOREG): < 25%
inhibition at 4 µM [1]: 26 to 50%

COc1ccc(OCC(=O)N2CCOC(Cc3ccccc3)C2)cc1 (stereo not drawn) [RU-0050384]
inhibition at 4 µM (OR8/OR7; compound applied at 4 μM): < 25%
inhibition at 4 µM (mOREG; compound applied at 4 μM): < 25%
inhibition at 4 µM ([1]; compound applied at 4 μM): < 25%
